In brackets after ≈: the same amount, converted by molar mass.
Key:
[1] = system: E. coli isolate 2 (CTX-M-2); experiment: Cross-resistance MIC assay, clinical isolate; type: cell-based; parameters: unit not given beside the values; conditions: E. coli isolate 2, CTX-M-2, resistance ESBL; protocol as section 5 (CAMHB; there µg mL-1); unit not given in Table S5
Procedure: (§1) 5. Determination of the minimal inhibitory concentration (MIC) in vitro The MIC of Corramycin was evaluated following the Clinical & Laboratory Standard Institute (CLSI; https://clsi.org) and EUCAST (https://eucast.org) guidelines. First, inoculi of the bacterial test strains were prepared by culturing isolated colonies in cation-adjusted Müller Hinton broth (CAMHB; 2 g L-1 beef infusion solids, 1.5 g L-1 starch, 17.5 g L-1 casein hydrolysates, final pH 7.4) at 37 °C and 180 rpm for 18 h. Next, Corramycin, which was dissolved in DMSO, was transferred into the first row of a 96-well plate to reach an end concentration of 64 µg mL-1 (in 100 µL total volume). A 1:1 serial dilution in cation-adjusted Mueller Hinton broth (CAMHB) of the test compound was done from the top row to the bottom […]
(§2) the respective test strains were transferred into the wells, reaching a total volume of 100 µL and 5x10^5 colony-forming units (CFU) mL-1. After a 20 to 22 h of incubation, the optical density was evaluated on a microplate reader and the MIC endpoint was determined as the lowest concentration of antibiotic at which there was no visible growth observed. Each MIC experiment was performed in duplicates. Table […]
(§3) (1 picture or pasted object on this page, not shown here)
(§4) 6. Investigation of the cross-resistance of Corramycin to clinically used antibiotics […]
(§5) of the MIC according to the protocol described in the previous section. The MIC of the respective antibiotics against 16 clinical isolate E. coli strains, which were obtained from P. Nordmann’s collection and were classified Carbapenem-resistant, Aminoglycoside-resistant or Quinolone-resistant, was […]
(§6) extended-spectrum β-lactamase; CP: carbapenem; AG: aminoglycoside; QL: quinolone; PRP

[2] = system: E. coli isolate 3 (OXA-30); experiment: Cross-resistance MIC assay, clinical isolate; type: cell-based; parameters: unit not given beside the values; conditions: E. coli isolate 3, OXA-30, resistance ESBL-CP; protocol as section 5 (CAMHB; there µg mL-1); unit not given in Table S5
Procedure: as §1, §2, §3, §4, §5, §6

[3] = system: E. coli isolate 5 (TEM-3); type: cell-based; parameters: unit not given beside the values; conditions: E. coli isolate 5, TEM-3, resistance ESBL; protocol as section 5 (CAMHB; there µg mL-1); unit not given in Table S5
Procedure: as §1, §2, §3, §4, §5, §6

[4] = system: E. coli isolate 10 (OXA-48+CTX-M-15); experiment: Cross-resistance MIC assay, clinical isolate; type: cell-based; conditions: E. coli isolate 10, OXA-48+CTX-M-15, resistance ESBL-CP; protocol as section 5 (CAMHB; there µg mL-1); unit not given in Table S5
Procedure: as §1, §2, §3, §4, §5, §6

[5] = system: E. coli isolate 11 (RMT-B); experiment: Cross-resistance MIC assay, clinical isolate; type: cell-based; conditions: resistance AG, protocol as section 5 (CAMHB; there µg mL-1), unit not given in Table S5
Procedure: as §1, §2, §3, §4, §5, §6

[6] = system: E. coli isolate 6 (IMP-1); experiment: Cross-resistance MIC assay, clinical isolate; type: cell-based; conditions: E. coli isolate 6, IMP-1, resistance ESBL-CP; protocol as section 5 (CAMHB; there µg mL-1); unit not given in Table S5
Procedure: as §1, §2, §3, §4, §5, §6

[7] = system: E. coli isolate 7 (IMP-4); experiment: Cross-resistance MIC assay, clinical isolate; type: cell-based; conditions: E. coli isolate 7, IMP-4, resistance ESBL-CP; protocol as section 5 (CAMHB; there µg mL-1); unit not given in Table S5
Procedure: as §1, §2, §3, §4, §5, §6

[8] = system: E. coli isolate 1 (CTX-M-1); experiment: Cross-resistance MIC assay, clinical isolate; parameters: unit not given beside the values; conditions: E. coli isolate 1, CTX-M-1, resistance ESBL; protocol as section 5 (CAMHB; there µg mL-1); unit not given in Table S5
[9] = system: E. coli isolate 4 (SHV-2a); experiment: Cross-resistance MIC assay, clinical isolate; parameters: unit not given beside the values; conditions: resistance ESBL, protocol as section 5 (CAMHB; there µg mL-1), unit not given in Table S5
[10] = system: E. coli isolate 8 (KPC-2+TEM-1+OXA-9); experiment: Cross-resistance MIC assay, clinical isolate; parameters: unit not given beside the values; conditions: E. coli isolate 8, KPC-2+TEM-1+OXA-9, resistance ESBL-CP; protocol as section 5 (CAMHB; there µg mL-1); unit not given in Table S5
[11] = system: E. coli isolate 9 (OXA-48); experiment: Cross-resistance MIC assay, clinical isolate; parameters: unit not given beside the values; conditions: E. coli isolate 9, OXA-48, resistance ESBL-CP; protocol as section 5 (CAMHB; there µg mL-1); unit not given in Table S5
[12] = system: E. coli isolate 12 (ARM-A); experiment: Cross-resistance MIC assay, clinical isolate; parameters: unit not given beside the values; conditions: resistance AG, protocol as section 5 (CAMHB; there µg mL-1), unit not given in Table S5
[13] = system: E. coli isolate 13 (RMT-C); experiment: Cross-resistance MIC assay, clinical isolate; parameters: unit not given beside the values; conditions: resistance AG, protocol as section 5 (CAMHB; there µg mL-1), unit not given in Table S5
[14] = system: E. coli isolate 14 (qepA); experiment: Cross-resistance MIC assay, clinical isolate; parameters: unit not given beside the values; conditions: resistance QL, protocol as section 5 (CAMHB; there µg mL-1), unit not given in Table S5
[15] = system: E. coli isolate 15 (qnrA1); experiment: Cross-resistance MIC assay, clinical isolate; parameters: unit not given beside the values; conditions: E. coli isolate 15, qnrA1, resistance QL; protocol as section 5 (CAMHB; there µg mL-1); unit not given in Table S5
[16] = system: E. coli isolate 16 (QnrS1); experiment: Cross-resistance MIC assay, clinical isolate; parameters: unit not given beside the values; conditions: E. coli isolate 16, QnrS1, resistance QL; protocol as section 5 (CAMHB; there µg mL-1); unit not given in Table S5

| Compound | MIC [1] | MIC [2] | MIC [3] | MIC [4] | MIC [5] | MIC [6] | MIC [7] | MIC [8] | MIC [9] | MIC [10] | MIC [11] | MIC [12] | MIC [13] | MIC [14] | MIC [15] | MIC [16] |
| --- | --- | --- | --- | --- | --- | --- | --- | --- | --- | --- | --- | --- | --- | --- | --- | --- |
| CO/N=C(\C(=O)N[C@@H]1C(=O)N2C(C(=O)O)=C(COC(C)=O)CS[C@H]12)c1csc(N)n1 [Cefotaxim] | 64 | 1 | 64 | > 64 µg/mL | > 64 µg/mL | 0.25 µg/mL (≈ 0.549 µM) | > 64 µg/mL | > 64 | 64 | > 64 | > 64 | > 64 | > 64 | > 64 | 32 | > 64 |
| CO[C@@]1(NC(=O)Cc2cccs2)C(=O)N2C(C(=O)O)=C(COC(N)=O)CS[C@@H]21 [Cefoxitin] | 4 | 4 | 4 | 16 µg/mL (≈ 37.4 µM) | 16 µg/mL (≈ 37.4 µM) | 16 µg/mL (≈ 37.4 µM) | > 64 µg/mL | 8 | 4 | 64 | 16 | 8 | > 64 | 8 | 8 | 8 |
| CO[C@H]1/C=C/O[C@@]2(C)Oc3c(C)c(O)c4c(O)c(c(/C=N/N5CCN(C)CC5)c(O)c4c3C2=O)NC(=O)/C(C)=C\C=C\[C@H](C)[C@H](O)[C@@H](C)[C@@H](O)[C@@H](C)[C@H](OC(C)=O)[C@@H]1C [Rifampicin] |  |  | 16 | 16 µg/mL (≈ 19.4 µM) | 16 µg/mL (≈ 19.4 µM) | 16 µg/mL (≈ 19.4 µM) | 16 µg/mL (≈ 19.4 µM) |  | 16 |  | 64 | > 64 |  |  | > 64 |  |
| CN(C)[C@@H]1C(O)=C(C(N)=O)C(=O)[C@@]2(O)C(O)=C3C(=O)c4c(O)cccc4[C@@](C)(O)[C@H]3C[C@@H]12 [Tetracyclin] | 32 |  |  |  |  |  |  |  |  |  |  |  |  | 4 | 4 |  |
| NC[C@H]1O[C@H](O[C@H]2[C@H](O)[C@@H](O[C@H]3O[C@H](CO)[C@@H](O)[C@H](N)[C@H]3O)[C@H](N)C[C@@H]2N)[C@H](N)C[C@@H]1O [Tobramycin] | 2 | 2 | 16 | 1 µg/mL (≈ 2.14 µM) | 1 µg/mL (≈ 2.14 µM) | 2 µg/mL (≈ 4.28 µM) | 16 µg/mL (≈ 34.2 µM) | 2 | 32 | 8 | 32 | > 64 | > 64 | 0.5 | 32 | 32 |
